# Test results published in patent publication US4044043A, “Derivatives of 9-oxo-13-trans-prostenoic acid esters” (American Cyanamid Company, priority 1975, dated 1977).
# Test system: bronchospasms elicited by histamine
# Experiment: Bronchodilator Activity (Konzett Assay) against histamine
# Assay type: in vivo, guinea pigs
# Conditions: Cavia porcellus; three logarithmic cumulative intravenous doses
# Description: (§1) Bronchodilator activity was determined in guinea pigs against bronchospasms elicited by intravenous injections of 5-hydroxytryptamine, histamine or acetylcholine by the Konzett procedure. [See J. Lulling, P. Lievens, F. El Sayed and J. Prignot, Arzeneimittel-Forschung, 18, 995 (1968)]. In Table IIIC which follows bronchodilator activity for representative compounds of this invention against one or more of the three spasmogenic agents is expressed as an ED50 determined from the results obtained with three logarithmic cumulative intravenous doses.
row,Compound,ED50 [mg/kg]
1,CCCCCCCCCC/C=C/[C@H]1CCC(=O)[C@@H]1CCCCCCC(=O)O (relative stereo) [20-butyl-9-oxo-13-trans-prostenoic acid],2.4

# Test system: diastolic blood pressure
# Experiment: Prostaglandin-like hypotensive activity in anesthetized rats (minimal dose for about 10 mm. decrease in diastolic blood pressure)
# Assay type: in vivo, Male Wistar strain rats
# Conditions: Rattus norvegicus; intravenous; decrease of about 10 mm. in diastolic blood pressure
# Summary of the method: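 Male Wistar rats (~250 g), pentobarbital 30 mg./kg. i.v. and hexamethonium 2 mg./kg. i.v., iliac artery cannulated for blood pressure. Compounds in saline-Tween 80 given i.v. at 0.1–10.0 mg./kg.; value is the minimal dose giving ~10 mm. drop in diastolic pressure.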
row,Compound,minimal effective dose [mg/kg]
1,CCOC(=O)CCCCCC[C@H]1C(=O)CC[C@@H]1/C=C/CCCCCCCl (relative stereo) [ethyl 20-chloro-9-oxo-13-trans-prostenoate],0.5
2,"CCOC(=O)CCCCCC[C@H]1C(=O)CC[C@@H]1/C=C/CCCCl (relative stereo) [ethyl 20-chloro-9-oxo-17,18,19-trinor-13-trans-prostenoate]",0.2 to 1
3,CCCCCC/C=C/[C@@H]1CCC(=O)[C@H]1CCCCCCC(=O)OCCCC (relative stereo) [n-butyl 9-oxo-13-trans-prostenoate],2
4,"O=C(O)CCCC/C=C/[C@@H]1CCC(=O)[C@H]1CCCCCCC(=O)O (relative stereo) [20-carboxy-9-oxo-18,19-dinor-13-trans-prostenoic acid]",8

# Test system: gastric acid secretion
# Experiment: Inhibition of basal Gastric Acid Secretion (Acute Gastric Fistula Rat)
# Assay type: in vivo, Female Sprague-Dawley rats
# Conditions: 2 h, 10 mg./kg. intraduodenal, B: 120 minute collection, read-out: % Inhibition Total Acid Output
# Description: Inhibition of basal gastric acid secretion was determined in the acute gastric fistula rat as follows. Female Sprague-Dawley rats (Charles River Laboratories) weighing 140-160 grams are fasted in individual cages for 18-24 hours. The rats are then lightly anesthetized with ether and their front teeth extracted to avoid destruction of the plastic cannula. A midline incision is then made and the stomach and duodenum exposed. A flanged polyvinyl tube is inserted into the fundic portion of the stomach and secured with a purse string suture line using 4-0 Mersilene. The rat is then dosed by injection of the compound into the duodenum (1.0 ml. per 100 gram body weight). After dosing, the abdominal wall and skin are closed using metal wound clips. The rat is replaced in a cage containing a longitudinal slit to allow the polyvinyl tube to hang freely. An 8 ml. plastic collecting tube is attached to the flanged cannula and hangs freely below the cage. The first 30 minute sample is discarded designating this time as zero. The collecting tube is attached again and samples removed at the end of 60 and 120 minutes. Those samples are referred to as "A" and "B" in the table. The hourly samples are then transferred to a 15 ml. centrifuge tube and centrifuged for 5-10 minutes. Total and sediment volume are then recorded with the supernatant volume being used as volume of secretion. A 1 ml. or less aliquot is then removed and placed in a 50 ml. beaker containing 10 ml. of distilled water. This sample is then titrated using 0.01N NaOH to pH 7.0 using a Beckman zeromatic pH meter. Volume, titratable acidity (meq/L) and total acid output (μ eq/hour) are recorded. Percent inhibition is determined by comparison with the appropriate control. Groups of three rats were used. All compounds are administered in vehicle (0.5% methocel, 0.4% Tween 80, saline) at a constant volume of 1 ml./100 gram rat. Samples were sonicated with care to prevent overheating.
row,Compound,inhibition in vivo at 10 mg/kg [%]
1,"O=C(O)CCCC/C=C/[C@@H]1CCC(=O)[C@H]1CCCCCCC(=O)O (relative stereo) [20-carboxy-9-oxo-18,19-dinor-13-trans-prostenoic acid]",25

# Same assay, conditions: 2 h, 10 mg./kg. intraduodenal, B: 120 minute collection, read-out: % Inhibition Total Acidity
row,Compound,inhibition in vivo at 10 mg/kg [%]
1,"O=C(O)CCCC/C=C/[C@@H]1CCC(=O)[C@H]1CCCCCCC(=O)O (relative stereo) [20-carboxy-9-oxo-18,19-dinor-13-trans-prostenoic acid]",30

# Test system: bronchospasms elicited by 5-hydroxytryptamine
# Experiment: Bronchodilator Activity (Konzett Assay) against 5-hydroxytryptamine
# Assay type: in vivo, guinea pigs
# Conditions: Cavia porcellus; three logarithmic cumulative intravenous doses
# Description: as §1
row,Compound,ED50 [mg/kg]
1,CCCCCCCCCC/C=C/[C@H]1CCC(=O)[C@@H]1CCCCCCC(=O)O (relative stereo) [20-butyl-9-oxo-13-trans-prostenoic acid],> 10

# Test system: gastric acid secretion
# Experiment: Inhibition of Gastric Acid Secretion (Pylorous-Ligated Rat), Shay rat procedure
# Assay type: in vivo, rats (male, CFE strain)
# Conditions: 50 mg./kg. intraduodenal, read-out: % Inhibition of Control Gastric Acid Secretion
# Summary of the method: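 Male CFE rats were fasted 48 h, then pylorus-ligated under ether. Gastric contents were titrated with 0.02N or 0.04N NaOH to pH 8.4 for acid output, and ≥20% inhibition counted as active.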
row,Compound,inhibition in vivo at 50 mg/kg [%]
1,CCCCCC/C=C/[C@@H]1CCC(=O)[C@H]1CCCCCCC(=O)OCCCC (relative stereo) [n-butyl 9-oxo-13-trans-prostenoate],20

# Same assay, conditions: 100 mg./kg. intraduodenal, read-out: % Inhibition of Control Gastric Acid Secretion
row,Compound,inhibition in vivo at 100 mg/kg [%]
1,"CCOC(=O)CCCCCC[C@H]1C(=O)CC[C@@H]1/C=C/CCCCl (relative stereo) [ethyl 20-chloro-9-oxo-17,18,19-trinor-13-trans-prostenoate]",61

# Test system: bronchospasms elicited by acetylcholine
# Experiment: Bronchodilator Activity (Konzett Assay) against acetylcholine
# Assay type: in vivo, guinea pigs
# Conditions: Cavia porcellus; three logarithmic cumulative intravenous doses
# Description: as §1
row,Compound,ED50 [mg/kg]
1,CCCCCCCCCC/C=C/[C@H]1CCC(=O)[C@@H]1CCCCCCC(=O)O (relative stereo) [20-butyl-9-oxo-13-trans-prostenoic acid],> 10

# Test system: dl-PGE1-induced contraction of gerbil colon
# Experiment: Inhibition of dl-PGE1-Induced Contraction of Gerbil Colon (prostaglandin antagonist action)
# Assay type: cell-based, gerbils (Meriones unguiculatus)
# Conditions: Meriones unguiculatus, 1 min; sub-maximal challenge, 20 ng./ml. dl-PGE1; 50% inhibition of maximum response; read-out: ID50 vs. 20 ng. of PGE1/ml.
# Summary of the method: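 Ascending colon from male gerbils, held in De Jalon's solution at 37 °C under 95% O2/5% CO2 with 0.5 g resting tension, contraction recorded isometrically. 1 min compound exposure, then 1 min dl-PGE1 at 200 ng/ml (maximal) or 20 ng/ml (sub-maximal). Approximate ID50 taken from a concentration series against the preceding agonist-only cycle.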
row,IC50 [µg/mL],Compound
1,35,"O=C(O)CCCC/C=C/[C@@H]1CCC(=O)[C@H]1CCCCCCC(=O)O (relative stereo) [20-carboxy-9-oxo-18,19-dinor-13-trans-prostenoic acid]"

# Test system: Mycobacterium smegmatis ATCC 606
# Experiment: agar-dilution streak-plate antimicrobial assay
# Assay type: cell-based
# Conditions: Mycolicibacterium smegmatis, ATCC606, read-out: Minimal inhibitory conc. (6)
# Summary of the method: (§2)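 Test solutions at 2.5 mg/ml were two-fold serially diluted, and 1 ml of each was mixed into 9 ml warm nutrient agar, with bacterial and fungal media kept separate. Overnight broth cultures or saline spore suspensions were streaked by loop. MIC was the lowest concentration (µg/ml) giving complete visible growth inhibition.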
row,Compound,MIC [µg/mL]
1,CCOC(=O)CCCCCC[C@H]1C(=O)CC[C@@H]1/C=C/CCCCCCCl (relative stereo) [ethyl 20-chloro-9-oxo-13-trans-prostenoate],250
2,CCCCCCCCCC/C=C/[C@H]1CCC(=O)[C@@H]1CCCCCCC(=O)O (relative stereo) [20-butyl-9-oxo-13-trans-prostenoic acid],10

# Second part, the compound after the results:
row,MIC [µg/mL],Compound
1,250,"CCOC(=O)CCCCCC[C@H]1C(=O)CC[C@@H]1/C=C/CCCCl (relative stereo) [ethyl 20-chloro-9-oxo-17,18,19-trinor-13-trans-prostenoate]"
2,250,CCCCCC/C=C/[C@@H]1CCC(=O)[C@H]1CCCCCCC(=O)OCCCC (relative stereo) [n-butyl 9-oxo-13-trans-prostenoate]

# Test system: Trichophyton mentagrophytes E 11
# Experiment: agar-dilution streak-plate antimicrobial assay
# Assay type: cell-based
# Conditions: E11, read-out: Minimal inhibitory conc. (4)
# Summary of the method: as §2
row,MIC [µg/mL],Compound
1,250,CCOC(=O)CCCCCC[C@H]1C(=O)CC[C@@H]1/C=C/CCCCCCCl (relative stereo) [ethyl 20-chloro-9-oxo-13-trans-prostenoate]
2,250,"CCOC(=O)CCCCCC[C@H]1C(=O)CC[C@@H]1/C=C/CCCCl (relative stereo) [ethyl 20-chloro-9-oxo-17,18,19-trinor-13-trans-prostenoate]"

# Test system: Trichophyton tonsurans NIH 662
# Experiment: agar-dilution streak-plate antimicrobial assay
# Assay type: cell-based
# Conditions: NIH662, read-out: Minimal inhibitory conc. (3)
# Summary of the method: as §2
row,MIC [µg/mL],Compound
1,250,CCOC(=O)CCCCCC[C@H]1C(=O)CC[C@@H]1/C=C/CCCCCCCl (relative stereo) [ethyl 20-chloro-9-oxo-13-trans-prostenoate]
2,250,CCCCCCCCCC/C=C/[C@H]1CCC(=O)[C@@H]1CCCCCCC(=O)O (relative stereo) [20-butyl-9-oxo-13-trans-prostenoic acid]

# Test system: Streptococcus pyogenes C 203
# Experiment: agar-dilution streak-plate antimicrobial assay
# Assay type: cell-based
# Conditions: C203, read-out: Minimal inhibitory conc. (8)
# Summary of the method: as §2
row,MIC [µg/mL],Compound
1,250,CCCCCC/C=C/[C@@H]1CCC(=O)[C@H]1CCCCCCC(=O)OCCCC (relative stereo) [n-butyl 9-oxo-13-trans-prostenoate]
2,10,CCCCCCCCCC/C=C/[C@H]1CCC(=O)[C@@H]1CCCCCCC(=O)O (relative stereo) [20-butyl-9-oxo-13-trans-prostenoic acid]

# Test system: Trichophyton rubrum E 97
# Experiment: agar-dilution streak-plate antimicrobial assay
# Assay type: cell-based
# Conditions: E97, read-out: Minimal inhibitory conc. (5)
# Summary of the method: as §2
row,MIC [µg/mL],Compound
1,250,CCOC(=O)CCCCCC[C@H]1C(=O)CC[C@@H]1/C=C/CCCCCCCl (relative stereo) [ethyl 20-chloro-9-oxo-13-trans-prostenoate]
